Data on 16 compounds can be found in patent US6545032B1, “Synthesis of [3,5,7]-H-imidazo[1,5-a] imidazol-2(3H)-one compounds” (Torrey Pines Institute for Molecular Studies, priority 1999, dated 2003).

One test deals with T1, kappa opiate receptor (Cavia porcellus, UniProt P41144).
T1 construct: guinea pig cortices and cerebella were homogenized in 40 mL of Buffer A; from tissue; host or cells: guinea pig cortices and cerebella, crude membrane suspension
Put plainly: Inhibition of tritiated U69,593 binding to the kappa opiate receptor in guinea pig brain homogenates. More on the design: Mean: unit not given beside the values. The following applies: 3 nm tritiated U69,593, guinea pig brain membranes; for % Bound: [3H]U69,593 bound; for % Inhibition: inhibition of [3H]U69,593 binding; for Mean: mean bound radioactivity of [3H]U69,593, 2.5 hours 25° C.; for Minus NSB: mean minus non-specific binding. How it is done:
The above-prepared library of individual compounds was screened for the ability to inhibit the binding of tritiated Compound U69,593 that is known to bind specifically to the kappa opiate receptor present in guinea pig brain homogenates following literature procedures. [Dooley et al., J. Biol. Chem., 273(30) 18848-18856 (1998)]
Briefly, guinea pig cortices and cerebella were homogenized in 40 mL of Buffer A [50 mM Tris-HCl, pH 7.4] at 4° C. Homogenates were centrifuged [Beckman® J2-HC, 35, 300×g] for 10 minutes. The pellets were resuspended in fresh buffer and incubated at 37° C. for 40 minutes. Following incubation, the suspensions were centrifuged as before, the resulting pellets resuspended in 100 volumes of Tris buffer, and the suspensions combined. Membrane suspensions were prepared and used on the same day. Protein content of the crude homogenates was determined by the method of Bradford, Anal. Biochem., 72:248-252 (1976).
Each assay tube contained 0.5 mL of membrane suspension, 3 nm of tritiated Compound U69,593 [(5a,7a,8b)-(−)-N-methyl-N-(7-(1-pyrrolidinyl)-1-oxaspiro(4,5)dec-8-yl)-benzeneacetamide; Lahti et al., European J. Pharmacol., 109:281-284(199-85)] in a total volume of 0.65 mL. Assay tubes were incubated for 2.5 hours a 25° C. The assay was then filtered through GF-B filters on a Tomec™ harvester (Orange, Conn.). The filters were subsequently washed with 6 mL of 50 mM Tris-HC1, pH 7.4 at 4° C. Bound radioactivity was counted on a Wallace™ Beta-plate Liquid Scintillation Counter (Piscataway, N.J.). Unlabeled U50, 488 [(trans-(dl)-3,4-dichloro-N-methyl-N-[2-(1-pyrrolidinyl)cyclohexyl]-benzeneacetamide) methane sulfonate hydrate; Lahti et al., Life Sci., 31:2257-xx(1982) and Von Voightlander et al., J. Pharmacol. Exp. Ther., 224:7 (1983)] was used as a competitive inhibitor to generate a standard curve and determine nonspecific binding. The results of these assays are shown in the table, below, wherein the “R” groups are as discussed for Example 1.

For the next test, the target named is T2, mu opiate receptor (Rattus norvegicus, UniProt P33535).
T2 construct: from tissue; host or cells: rat brain membranes/homogenate
Put plainly: Inhibition of [3H]DAMGO binding to the mu opiate receptor in rat brain homogenates. The following applies: 0.08 mg of compound per milliliter, 7 nM 3H-labeled DAMGO, rat brain membranes; for % Bound: [3H]DAMGO bound; for Mean: mean bound radioactivity of [3H]DAMGO; for Minus NSB*: mean minus non-specific binding; for % Inhibition: percent inhibition of DAMGO binding. Further details: Mean: unit not given beside the values. How it is done:
The previously prepared [3,5,7]-1H-imidazo[1,5-a]-imidazol-2(3H)-one library of individual compounds was screened for the ability to inhibit the binding of [^3H] [D-Ala^2,MePhe^4,Gly^5-ol]enkephalin (DAMGO) that is known to bind specifically to the mu opiate receptor present in rat brain homogenates following literature procedures. [Dooley et al., Science, 266:2019(1994); U.S. Pat. No. 5,763,193.]
Preparation of rat brain membranes and the receptor binding assay were carried out as described in Dooley et al., Life Sci., 52:1509(1993). Each tube in the screening assay contained 0.08 mg of compound mixture per milliliter, 0.5 mL of membrane suspension (0.1 mg of protein), 7 nM ^3H-labeled DAMGO [specific activity 36 Ci/mmol, obtained from the National Institute on Drug Abuse (NIDA) repository through Chiron Mimotopes PeptideSystems (San Diego, Calif.) and […] of peptide mixture in 50 mM Tris-HCl buffer (pH 7.4). The final volume was 0.65 mL. The results of these screenings are shown in the table, below, wherein the “R” groups are as discussed for Example 1. The results are reported as percent inhibition of DAMGO binding.

T2 sequence (P33535 whole entry): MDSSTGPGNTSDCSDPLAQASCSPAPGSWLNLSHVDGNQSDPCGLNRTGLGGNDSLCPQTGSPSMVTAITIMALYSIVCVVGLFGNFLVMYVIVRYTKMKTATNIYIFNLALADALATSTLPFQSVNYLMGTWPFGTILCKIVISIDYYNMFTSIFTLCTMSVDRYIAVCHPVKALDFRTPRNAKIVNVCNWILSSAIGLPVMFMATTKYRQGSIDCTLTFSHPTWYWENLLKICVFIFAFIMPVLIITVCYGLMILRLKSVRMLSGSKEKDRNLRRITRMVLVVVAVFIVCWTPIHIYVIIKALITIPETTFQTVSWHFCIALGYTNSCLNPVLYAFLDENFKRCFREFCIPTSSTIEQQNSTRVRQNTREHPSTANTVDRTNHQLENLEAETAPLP
T1 sequence (P41144 whole entry): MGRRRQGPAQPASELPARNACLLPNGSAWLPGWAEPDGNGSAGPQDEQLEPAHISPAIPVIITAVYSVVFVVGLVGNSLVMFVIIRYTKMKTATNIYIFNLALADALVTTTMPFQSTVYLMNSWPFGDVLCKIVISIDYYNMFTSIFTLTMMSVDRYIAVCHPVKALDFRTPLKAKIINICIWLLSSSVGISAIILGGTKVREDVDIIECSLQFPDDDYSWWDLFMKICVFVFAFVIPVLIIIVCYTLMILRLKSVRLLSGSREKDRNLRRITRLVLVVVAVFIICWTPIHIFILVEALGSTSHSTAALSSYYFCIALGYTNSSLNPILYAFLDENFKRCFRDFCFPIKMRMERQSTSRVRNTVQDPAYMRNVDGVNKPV

Turning to `Cc1nc(CC(C)C)c2n1C(C(C)C)C(=O)N2` (centres unmarked) [Pool 53], at kappa opiate receptor, the “% Bound” value is given as 106.356%, the “% Inhibition” value is listed as −6.356%, the Mean turned out to be 2008.85 and the “Minus NSB” value came to 1101.85. For the same compound, on mu opiate receptor, the “% Bound” value is 71%, the Mean was determined as 988.95, the “Minus NSB*” value turned out to be 680.95 and the “% Inhibition” value was 29%.

In the case of `CC(C)c1nc(Cc2cccc(F)c2)n2c1NC(=O)C2C(C)C` (racemic) [Pool 71], on kappa opiate receptor, the “% Bound” value came out at 61.245%, the “% Inhibition” value turned out to be 38.755%, the Mean came out at 1541.5 and the “Minus NSB” value was found to be 634.50. Further, at mu opiate receptor, the “% Bound” value is given as 57%, the Mean amounted to 853.7, the “Minus NSB*” value is 545.70 and the “% Inhibition” value came out at 43%.

As for `CCCC1C(=O)Nc2c(C(C)C)nc(C)n21` (centres unmarked) [Pool 12], on kappa opiate receptor, the “% Bound” value is reported as 74.706%, the “% Inhibition” value is given as 25.294%, the Mean is recorded as 1680.95 and the “Minus NSB” value came out at 773.95. At mu opiate receptor, the “% Bound” value stood at 72%, the Mean stood at 998.7, the “Minus NSB*” value is 690.70 and the “% Inhibition” value is listed as 28%.

Turning to `Cc1nc(Cc2ccc(O)cc2)c2n1C(C(C)C)C(=O)N2` (centres unmarked) [Pool 48], on kappa opiate receptor, the “% Bound” value was 84.653%, the “% Inhibition” value was found to be 15.347%, the Mean turned out to be 1784 and the “Minus NSB” value turned out to be 877.00. At mu opiate receptor, the “% Bound” value was determined as 44%, the Mean is 728.5, the “Minus NSB*” value is 420.50 and the “% Inhibition” value is listed as 56%.

For the compound `COc1cccc(Cc2nc(C(C)C)c3n2C(C(C)C)C(=O)N3)c1` (racemic) [Pool 76], at kappa opiate receptor, the “% Bound” value is on record as 91.902%, the “% Inhibition” value was 8.098%, the Mean was determined as 1859.1 and the “Minus NSB” value is 952.10. In addition, on mu opiate receptor, the “% Bound” value was found to be 57%, the Mean is 854, the “Minus NSB*” value is on record as 546.00 and the “% Inhibition” value is listed as 43%.

In the case of `Cc1nc(C(C)C)c2n1C(C(C)C)C(=O)N2` (centres unmarked) [Pool 3], at kappa opiate receptor, the “% Bound” value was 54.228%, the “% Inhibition” value was 45.772%, the Mean amounted to 1468.8 and the “Minus NSB” value amounted to 561.80. Besides, at mu opiate receptor, the “% Bound” value is 70%, the Mean is reported as 974.05, the “Minus NSB*” value came to 666.05 and the “% Inhibition” value is reported as 30%.

Take `CCCc1nc(C)n2c1NC(=O)C2C(C)C` (centres unmarked) [Pool 45]: at kappa opiate receptor, the “% Bound” value was 85.275%, the “% Inhibition” value is 14.725%, the Mean was found to be 1790.45 and the “Minus NSB” value came to 883.45. In addition, on mu opiate receptor, the “% Bound” value was 62%, the Mean was determined as 902.55, the “Minus NSB*” value is on record as 594.55 and the “% Inhibition” value was 38%.

For the compound `Cc1nc(C(C)C)c2n1C(C(C)C)C(=O)N2` (centres unmarked) [Pool 52], at kappa opiate receptor, the “% Bound” value came to 74.744%, the “% Inhibition” value came out at 25.256%, the Mean was determined as 1681.35 and the “Minus NSB” value was 774.35. On mu opiate receptor, the “% Bound” value is reported as 68%, the Mean came to 959.85, the “Minus NSB*” value was 651.85 and the “% Inhibition” value is listed as 32%.

`COc1ccc(Cc2nc(C(C)C)c3n2C(C(C)C)C(=O)N3)cc1` (racemic) [Pool 78]: at kappa opiate receptor, the “% Bound” value is given as 87.360%, the “% Inhibition” value stood at 12.640%, the Mean came to 1812.05 and the “Minus NSB” value is listed as 905.05. Further, at mu opiate receptor, the “% Bound” value is 49%, the Mean was 775.2, the “Minus NSB*” value worked out at 467.20 and the “% Inhibition” value stood at 51%.

Take `CCCc1nc(C)n2c1NC(=O)C2C(C)C` (racemic) [Pool 61]: on kappa opiate receptor, the “% Bound” value stood at 50.845%, the “% Inhibition” value is 49.155%, the Mean was 1433.75 and the “Minus NSB” value is recorded as 526.75. At mu opiate receptor, the “% Bound” value is 39%, the Mean was determined as 677.65, the “Minus NSB*” value is recorded as 369.65 and the “% Inhibition” value is 61%.

As for `CCCc1nc(C(C)C)c2n1C(C(C)C)C(=O)N2` (racemic) [Pool 121], on kappa opiate receptor, the “% Bound” value was 60.468%, the “% Inhibition” value amounted to 39.532%, the Mean is on record as 1533.45 and the “Minus NSB” value was found to be 626.45. Also, at mu opiate receptor, the “% Bound” value was determined as 54%, the Mean stood at 826.45, the “Minus NSB*” value worked out at 518.45 and the “% Inhibition” value came to 46%.

As to `CC(C)CCc1nc(C(C)C)c2n1C(C(C)C)C(=O)N2` (centres unmarked) [Pool 127], on kappa opiate receptor, the “% Bound” value is recorded as 66.178%, the “% Inhibition” value is 33.822%, the Mean was 1592.6 and the “Minus NSB” value was 685.60. Moreover, at mu opiate receptor, the “% Bound” value came out at 63%, the Mean was 909.6, the “Minus NSB*” value stood at 601.60 and the “% Inhibition” value came out at 37%.

For `CC1CCC(Cc2nc(C(C)C)c3n2C(C(C)C)C(=O)N3)CC1` (centres unmarked) [Pool 152], at kappa opiate receptor, the “% Bound” value stood at 58.697%, the “% Inhibition” value was 41.303%, the Mean was found to be 1515.1 and the “Minus NSB” value was found to be 608.10. Further, on mu opiate receptor, the “% Bound” value is 48%, the Mean is reported as 770.1, the “Minus NSB*” value is 462.10 and the “% Inhibition” value turned out to be 52%.

`CCC(C)C1C(=O)Nc2c(C(C)C)nc(C)n21` (centres unmarked) [Pool 5]: at kappa opiate receptor, the “% Bound” value worked out at 75.043%, the “% Inhibition” value came to 24.957%, the Mean was determined as 1684.45 and the “Minus NSB” value amounted to 777.45. Further, at mu opiate receptor, the “% Bound” value is recorded as 78%, the Mean stood at 1052.8, the “Minus NSB*” value amounted to 744.80 and the “% Inhibition” value is 22%.

`Cc1cccc(Cc2nc(C(C)C)c3n2C(C(C)C)C(=O)N3)c1` (racemic) [Pool 70]: at kappa opiate receptor, the “% Bound” value stood at 107.389%, the “% Inhibition” value was −7.389%, the Mean was 2019.55 and the “Minus NSB” value is listed as 1112.55. Moreover, at mu opiate receptor, the “% Bound” value was determined as 68%, the Mean is on record as 954.15, the “Minus NSB*” value turned out to be 646.15 and the “% Inhibition” value came to 32%.

As to `CC(C)c1nc(CC(C)(C)C)n2c1NC(=O)C2C(C)C` (centres unmarked) [Pool 136], on kappa opiate receptor, the “% Bound” value was 80.589%, the “% Inhibition” value was determined as 19.411%, the Mean stood at 1741.9 and the “Minus NSB” value stood at 834.90. At mu opiate receptor, the “% Bound” value was 72%, the Mean turned out to be 991, the “Minus NSB*” value came to 683.00 and the “% Inhibition” value is reported as 28%.
